Paper PMC10616469, “Pharmacokinetics and tissue distribution of four major bioactive components of Cynanchum auriculatum extract: a UPLC–MS/MS study in normal and functional dyspepsia rats” (Frontiers in Pharmacology, 2023)
Where two headings read alike, the source gives them in different places.

Tests used:
[1] = Stability of the four compounds in tissue homogenate samples (QC samples); details: mean ± s, n = 5
Procedure: (§1) Additionally, stomach and small intestinal tissues were diluted three times to obtain a tissue homogenate. Then, 300 μL of this tissue homogenate was mixed with 30 μL 1% formic acid-water, 20 μL IS, and 1.2 mL acetonitrile. The mixture was then vortexed for 5 min, sonicated for 10 min, and then stored at −20°C for 30 min. Subsequently, the mixture was centrifuged at 14,000 rpm for 10 min. The supernatant obtained was then transferred to another tube and evaporated to dryness at 37°C under nitrogen. The dried residue was reconstituted with 200 μL of the 50% methanol–water, and the centrifugation process was repeated. The obtained supernatant was then used for further analysis.
The appropriate amount of the reference substance was accurately weighed and dissolved in an appropriate amount of methanol to obtain stock solutions. The concentrations of the resulting stock solution were 0.9996 mg/mL for baishouwu benzophenone, 0.9518 mg/mL for deacylmetaplexigenin, 1.3660 mg/mL for qingyangshengenin, and 0.9898 mg/mL for syringic acid. Accurate volumes of each stock solution were mixed to obtain working solution, which was then serially diluted with methanol to provide standard working solutions. Similarly, QC samples of three concentrations (low, medium, and high) were prepared. All solutions were stored at −20°C for later use.
The following parameters of stability were assessed: short–term stability (24 h at room temperature), processed sample stability (24 h at 4°C), freeze–thaw stability (3 cycles), and auto–sampler stability (6 h at room temperature). QC samples of different concentrations were used for stability analysis.

[2] = Tissue distribution study after oral administration of CA extract in normal and FD rats
Procedure: UPLC–MS/MS analysis was conducted using the ACQUITY UPLC system (Waters Corp., Milford, MA, United States) equipped with a Xevo–TQ mass spectrometer (Waters Corp., Milford, MA, United States) with an electrospray ionization (ESI) interface and triple quadrupole mass analyzer.
The ACQUITY UPLC® BEH C18 column (2.1 mm × 50 mm, 1.7 μm, Waters, United States) was used for separation and was maintained at 40°C. The mobile phase consisted of 0.1% formic acid in water (A) and 0.1% formic acid–acetonitrile (B) for PK study and 0.2% formic acid in water (A) and 0.2% formic acid–acetonitrile (B) for tissue distribution study. The mobile phase was eluted as a gradient, as follows: 0–0.5 min, 10% B; 0.5–3.0 min, 15% B; 3.0–3.2 min, 25% B; 3.2–4.0 min, 30% B; 4.0–4.5 min, 32% B; 4.5–6.0 min, 90% B; and 6.0 min, 10% B. The flow rate was set at 0.35 mL/min and the injection volume was 2 μL for the PK study and 1 μL for the tissue distribution study.
The four active components of CA were quantified using multiple reaction monitoring under negative ion mode. The following m/z transitions were chosen for quantification: baishouwu benzophenone 301.00→283.00, deacylmetaplexigenin 379.15→361.20, qingyangshengenin 499.20→137.00, syringic acid 197.20→181.95, and puerarin (internal standard, IS) 415.10→267.05. The collision energy was 15, 15, 35, 15, and 35 V, respectively ([Sun et al., 2022]). ESI mode was operated under the following conditions: capillary voltage, 1 kV; desolvation gas (N2), 1000 L/h; collision gas (Ar2), 150 L/h; desolvation temperature, 400°C; and source temperature, 120°C.
as §1
SD rats were randomly divided into normal and FD groups (n = 30 each) and orally administered 10 mL/kg of CA extract solution. The rats were sacrificed at 10, 30 min, 1, 2, and 4 h after administration (6 rats per time point). Subsequently, their heart, liver, spleen, lung, kidney, brain, small intestine, and stomach were removed. The tissue samples were then washed in saline solution and wiped with filter paper. Subsequently, all tissues were stored at −80°C until analysis.

[3] = PK study: plasma pharmacokinetics after oral administration of CA extract in normal and FD rats (UPLC-MS/MS); type: in vivo; details: Sprague-Dawley, rat, oral CA extract (0.10 g/mL solution, 10 mL/kg); for AUC(0-inf) / AUC(0-t) / CL/F / Cmax / half-life: n = 6; for Tmax: n = 6, read-out: Tmax; for Vd/F: n = 6, read-out: Vz/F
Procedure: For PK experiments, an appropriate amount of the CA extract was weighed to prepare a 0.10 g/mL solution using physiological saline. Briefly, 12 SD rats were randomly assigned to normal and FD groups and were orally administered the prepared CA sample (10 mL/kg body weight). For assessment, 0.3 mL of blood was collected into heparinized tubes via the caudal vein before dosing and at 2, 5, 10, 15, 20, 30, and 45 min, and 1, 2, 4, 8, 12, 24, and 48 h after administration. Blood samples were then immediately centrifuged at 4,500 rpm for 15 min, and the obtained plasma samples were stored at −20°C until determination.
The PK parameters were analyzed using the non–compartment analysis using the WinNonLin 8.2 software (Phoenix, United States). All the data were expressed as mean ± standard deviation (SD). The normal and FD groups were compared using independent samples t–test in SPSS 22.0. Results with p values < 0.05 were considered statistically significant.

[4] = Stability of the four compounds in plasma samples (QC samples); details: n = 5
Procedure: In a 1.5 mL EP tube, 100 μL of plasma sample was mixed with 10 µL 1% formic acid–water, 10 μL IS (0.2011 μg/mL), and 400 μL acetonitrile. The mixture was then vortexed for 5 min, followed by sonication for 10 min at 40 kHz and centrifugation at 14,000 rpm for 10 min. The supernatant obtained was transferred to another tube and evaporated to dryness under a nitrogen vacuum at 37°C. The residue obtained was reconstituted with 150 μL of the initial mobile phase, and the centrifugation process was repeated. The supernatant thus obtained was then used for further analysis.
Similarly, QC samples of three concentrations (low, medium, and high) were prepared.
The specificity of the method was evaluated by comparing the retention times of analytes and IS in the blank matrix, blank matrix spiked with the four analytes and IS, and the samples after oral administration of CA extract. Calibration curves were constructed by comparing the ratio of peak areas of the four analytes to that of IS versus the concentration of the four analytes. Calibration curves were fitted via linear weighted (1/X ^ 2 ) least–squares regression. The intra–and inter–day precision and accuracy were estimated by analyzing QC samples at different concentrations on the same day and three consecutive validation days, respectively. The extraction recovery was evaluated by determining the peak area of analytes in QC samples compared with that in extracted matrix samples. The relative standard deviation of the extraction recovery of analytes at each level was retained at ≤20.0%. The following parameters of stability were assessed: short–term stability (24 h at room temperature), processed sample stability (24 h at 4°C), freeze–thaw stability (3 cycles), and auto–sampler stability (6 h at room temperature). QC samples of different concentrations were used for stability analysis.

[5] = Brain homogenate, highest QC (ng·mL^-1): Baishouwu benzophenone 131.10, Syringic acid 320.04, Qingyangshengenin 62.12, Deacylmetaplexigenin 677.19
[6] = Brain homogenate, lowest QC (ng·mL^-1): Baishouwu benzophenone 3.34, Syringic acid 8.18, Qingyangshengenin 1.58, Deacylmetaplexigenin 17.26
[7] = Brain homogenate, middle QC (ng·mL^-1): Baishouwu benzophenone 20.88, Syringic acid 51.14, Qingyangshengenin 9.90, Deacylmetaplexigenin 107.87
[8] = Heart homogenate, highest QC (ng·mL^-1): Baishouwu benzophenone 111.56, Syringic acid 340.93, Qingyangshengenin 350.76, Deacylmetaplexigenin 1522.88
[9] = Heart homogenate, lowest QC (ng·mL^-1): Baishouwu benzophenone 2.66, Syringic acid 8.11, Qingyangshengenin 8.35, Deacylmetaplexigenin 36.24
[10] = Heart homogenate, middle QC (ng·mL^-1): Baishouwu benzophenone 18.96, Syringic acid 57.96, Qingyangshengenin 59.63, Deacylmetaplexigenin 258.89
[11] = Kidney homogenate, highest QC (ng·mL^-1): Baishouwu benzophenone 768.40, Syringic acid 1230.44, Qingyangshengenin 844.98, Deacylmetaplexigenin 2249.71
[12] = Kidney homogenate, lowest QC (ng·mL^-1): Baishouwu benzophenone 9.84, Syringic acid 15.75, Qingyangshengenin 10.82, Deacylmetaplexigenin 28.80
[13] = Kidney homogenate, middle QC (ng·mL^-1): Baishouwu benzophenone 81.96, Syringic acid 131.25, Qingyangshengenin 90.13, Deacylmetaplexigenin 239.97
[14] = Liver homogenate, highest QC (ng·mL^-1): Baishouwu benzophenone 313.75, Syringic acid 268.07, Qingyangshengenin 4484.13, Deacylmetaplexigenin 3093.35
[15] = Liver homogenate, lowest QC (ng·mL^-1): Baishouwu benzophenone 1.77, Syringic acid 22.34, Qingyangshengenin 25.26, Deacylmetaplexigenin 16.38
[16] = Lung homogenate, highest QC (ng·mL^-1): Baishouwu benzophenone 630.29, Syringic acid 662.80, Qingyangshengenin 385.86, Deacylmetaplexigenin 1513.71
[17] = Lung homogenate, lowest QC (ng·mL^-1): Baishouwu benzophenone 17.66, Syringic acid 18.57, Qingyangshengenin 10.81, Deacylmetaplexigenin 42.42
[18] = Lung homogenate, middle QC (ng·mL^-1): Baishouwu benzophenone 105.98, Syringic acid 111.44, Qingyangshengenin 64.88, Deacylmetaplexigenin 254.52
[19] = Small intestine homogenate, highest QC (ng·mL^-1): Baishouwu benzophenone 39.22, Syringic acid 773.28, Qingyangshengenin 1726.39, Deacylmetaplexigenin 1206.41
[20] = Small intestine homogenate, lowest QC (ng·mL^-1): Baishouwu benzophenone 0.46, Syringic acid 9.31, Qingyangshengenin 20.77, Deacylmetaplexigenin 14.52
[21] = Small intestine homogenate, middle QC (ng·mL^-1): Baishouwu benzophenone 4.97, Syringic acid 97.95, Qingyangshengenin 218.68, Deacylmetaplexigenin 152.81
[22] = Spleen homogenate, highest QC (ng·mL^-1): Baishouwu benzophenone 658.88, Syringic acid 752.66, Qingyangshengenin 418.52, Deacylmetaplexigenin 1979.74
[23] = Spleen homogenate, lowest QC (ng·mL^-1): Baishouwu benzophenone 10.98, Syringic acid 12.54, Qingyangshengenin 6.98, Deacylmetaplexigenin 33.00
[24] = Spleen homogenate, middle QC (ng·mL^-1): Baishouwu benzophenone 87.85, Syringic acid 100.35, Qingyangshengenin 55.80, Deacylmetaplexigenin 263.97
[25] = Stomach homogenate, highest QC (ng·mL^-1): Baishouwu benzophenone 47.06, Syringic acid 257.76, Qingyangshengenin 1285.45, Deacylmetaplexigenin 1665.65
[26] = Stomach homogenate, lowest QC (ng·mL^-1): Baishouwu benzophenone 0.63, Syringic acid 3.44, Qingyangshengenin 17.14, Deacylmetaplexigenin 22.21
[27] = Stomach homogenate, middle QC (ng·mL^-1): Baishouwu benzophenone 6.28, Syringic acid 34.37, Qingyangshengenin 171.39, Deacylmetaplexigenin 222.09
[28] = high QC (nominal 1666.00 / 3172.53 / 569.17 / 206.21 ng·mL^-1)
[29] = low QC (nominal 52.06 / 49.57 / 8.89 / 1.61 ng·mL^-1)
[30] = medium QC (nominal 208.25 / 396.57 / 71.13 / 25.78 ng·mL^-1)

## CC(=O)c1ccc(O)c(C(=O)c2c(O)ccc(O)c2C)c1O [Baishouwu benzophenone]
[1]; [5]
  Auto-sampler for 6 h Measured concentration: 120.63 ± 2.55 ng/mL
  Three freeze-thaw cycles Measured concentration: 123.76 ± 3.01 ng/mL
[1]; [6]
  Auto-sampler for 6 h Measured concentration: 3.08 ± 0.01 ng/mL
  Three freeze-thaw cycles Measured concentration: 3.02 ± 0.04 ng/mL
[1]; [7]
  Auto-sampler for 6 h Measured concentration: 19.76 ± 0.44 ng/mL
  Three freeze-thaw cycles Measured concentration: 20.10 ± 0.34 ng/mL
[1]; [8]
  Auto-sampler for 6 h Measured concentration: 117.44 ± 1.18 ng/mL
  Three freeze-thaw cycles Measured concentration: 118.10 ± 1.89 ng/mL
[1]; [9]
  Auto-sampler for 6 h Measured concentration: 2.59 ± 0.05 ng/mL
  Three freeze-thaw cycles Measured concentration: 2.47 ± 0.03 ng/mL
[1]; [10]
  Auto-sampler for 6 h Measured concentration: 19.82 ± 0.45 ng/mL
  Three freeze-thaw cycles Measured concentration: 19.77 ± 0.41 ng/mL
[1]; [11]
  Auto-sampler for 6 h Measured concentration: 750.99 ± 14.44 ng/mL
  Three freeze-thaw cycles Measured concentration: 748.36 ± 12.9 ng/mL
[1]; [12]
  Auto-sampler for 6 h Measured concentration: 9.74 ± 0.44 ng/mL
  Three freeze-thaw cycles Measured concentration: 9.58 ± 0.63 ng/mL
[1]; [13]
  Auto-sampler for 6 h Measured concentration: 88.88 ± 5.31 ng/mL
  Three freeze-thaw cycles Measured concentration: 87.75 ± 5.24 ng/mL
[1]; [14]
  Auto-sampler for 6 h Measured concentration: 305.22 ± 17.58 ng/mL
  Three freeze-thaw cycles Measured concentration: 303.56 ± 16.64 ng/mL
[1]; [15]
  Auto-sampler for 6 h Measured concentration: 1.80 ± 0.19 ng/mL
  Three freeze-thaw cycles Measured concentration: 1.86 ± 0.05 ng/mL
[1]; Liver homogenate, middle QC (ng·mL^-1): Baishouwu benzophenone 27.19, Syringic acid 89.35, Qingyangshengenin 386.62, Deacylmetaplexigenin 268.09
  Three freeze-thaw cycles Measured concentration: 26.80 ± 1.81 ng/mL
[1]; [16]
  Auto-sampler for 6 h Measured concentration: 717.67 ± 14.53 ng/mL
  Three freeze-thaw cycles Measured concentration: 716.31 ± 12.93 ng/mL
[1]; [17]
  Auto-sampler for 6 h Measured concentration: 17.71 ± 1.84 ng/mL
  Three freeze-thaw cycles Measured concentration: 17.55 ± 2.16 ng/mL
[1]; [18]
  Auto-sampler for 6 h Measured concentration: 107.37 ± 5.82 ng/mL
  Three freeze-thaw cycles Measured concentration: 105.63 ± 6.43 ng/mL
[1]; [19]
  Auto-sampler for 6 h Measured concentration: 38.84 ± 3.48 ng/mL
  Three freeze-thaw cycles Measured concentration: 38.30 ± 3.03 ng/mL
[1]; [20]
  Auto-sampler for 6 h Measured concentration: 0.48 ± 0.05 ng/mL
  Three freeze-thaw cycles Measured concentration: 0.46 ± 0.04 ng/mL
[1]; [21]
  Auto-sampler for 6 h Measured concentration: 4.71 ± 0.14 ng/mL
  Three freeze-thaw cycles Measured concentration: 4.66 ± 0.10 ng/mL
[1]; [22]
  Auto-sampler for 6 h Measured concentration: 684.55 ± 31.57 ng/mL
  Three freeze-thaw cycles Measured concentration: 677.57 ± 32.24 ng/mL
[1]; [23]
  Auto-sampler for 6 h Measured concentration: 11.24 ± 0.63 ng/mL
  Three freeze-thaw cycles Measured concentration: 11.40 ± 0.76 ng/mL
[1]; [24]
  Auto-sampler for 6 h Measured concentration: 80.95 ± 2.54 ng/mL
  Three freeze-thaw cycles Measured concentration: 79.35 ± 1.81 ng/mL
[1]; [25]
  Auto-sampler for 6 h Measured concentration: 43.94 ± 1.72 ng/mL
  Three freeze-thaw cycles Measured concentration: 44.41 ± 1.38 ng/mL
[1]; [26]
  Auto-sampler for 6 h Measured concentration: 0.57 ± 0.05 ng/mL
  Three freeze-thaw cycles Measured concentration: 0.58 ± 0.07 ng/mL
[1]; [27]
  Auto-sampler for 6 h Measured concentration: 6.13 ± 0.11 ng/mL
  Three freeze-thaw cycles Measured concentration: 6.22 ± 0.15 ng/mL
[2]; FD group
  tissue with the highest concentration: lungs
[2]; distribution found in rat brain
  crossing of the blood-brain barrier: could cross the blood-brain barrier
[2]; rat tissues
  time after oral administration at which almost completely metabolized in tissues: 4 h
  time of peak in most of organ tissues: 0.17 to 0.5 h
[3]; FD group rats
  AUC(0-inf): 11100 ng·h/mL
  AUC(0-t): 9820 ± 1300 ng·h/mL
  CL/F: 7.5 mL/min/kg
  Cmax: 5220 ± 440 ng/mL
  half-life: 11 ± 1.85 h
  Tmax: 0.31 ± 0.06 h
  Vd/F: 7.08 ± 1.07 L/kg
[3]; Normal group rats
  AUC(0-inf): 13800 ng·h/mL
  AUC(0-t): 12800 ng·h/mL
  CL/F: 6 mL/min/kg
  Cmax: 6000 ± 592 ng/mL
  half-life: 9.14 ± 2.41 h
  Tmax: 0.26 ± 0.03 h
  Vd/F: 4.67 ± 0.88 L/kg
[4]; [28]
  Measured concentration, 4°C for 24 h: 1594.23 ± 107.31 ng/mL
  Measured concentration, Room temperature for 24 h: 1664.66 ± 169.47 ng/mL
  Measured concentration, Three freeze-thaw cycles: 1684.19 ± 146.38 ng/mL
[4]; [29]
  Measured concentration, 4°C for 24 h: 55.65 ± 4.01 ng/mL
  Measured concentration, Three freeze-thaw cycles: 56.07 ± 5.75 ng/mL
[4]; low QC (nominal 52.06 / 49.57 / 8.89 / 1.61 ng·mL^-1 for baishouwu benzophenone / deacylmetaplexigenin / qingyangshengenin / syringic acid)
  Measured concentration, Room temperature for 24 h: 55.67 ± 5.93 ng/mL
[4]; [30]
  Measured concentration, 4°C for 24 h: 221.19 ± 11.60 ng/mL
  Measured concentration, Room temperature for 24 h: 222.20 ± 17.55 ng/mL
  Measured concentration, Three freeze-thaw cycles: 221.08 ± 17.98 ng/mL
